Laboratory results from publication PMC11882969 (Nature Communications, 2025).
Several values for one entry are separate records, joined by “and”; a condition that tells them apart may be missing. Equal values may be shown once. Entries after “also recorded” stand apart in the source; their conditions may differ.

Experiment: Pharmacokinetics: plasma, brain, CSF
Conditions: for brain AUC0→inf / brain Cmax / level in CSF: 0.2 mg/kg i.p., CD-1 mice; for concentration at 1 min / concentration at 5 min / concentration at 15 min / concentration at 30 min / concentration at 60 min / concentration at 120 min / concentration at 240 min / concentration at 360 min / concentration at 480 min / half-life / AUC(0-inf) / Cmax: male, CD-1, mouse, 0.2 mg/kg; for concentration at 1 min / concentration at 5 min / concentration at 15 min / concentration at 30 min / concentration at 60 min / concentration at 120 min / concentration at 240 min / concentration at 360 min / concentration at 480 min: intraperitoneal; for half-life / AUC(0-inf) / Cmax: ip

SMILES | brain AUC0→inf [ng·min/mL] | brain Cmax [ng/g] | level in CSF | concentration at 1 min (CSF) [ng/mL] | concentration at 5 min (CSF) [ng/mL] | concentration at 15 min (CSF) [ng/mL] | concentration at 30 min (CSF) [ng/mL] | concentration at 60 min (CSF) [ng/mL] | concentration at 120 min (CSF) [ng/mL] | concentration at 240 min (CSF) [ng/mL] | concentration at 360 min (CSF) [ng/mL] | concentration at 480 min (CSF) [ng/mL] | concentration at 1 min (brain) [ng/g] | concentration at 5 min (brain) [ng/g] | concentration at 15 min (brain) [ng/g] | concentration at 30 min (brain) [ng/g] | concentration at 60 min (brain) [ng/g] | concentration at 120 min (brain) [ng/g] | concentration at 240 min (brain) [ng/g] | concentration at 360 min (brain) [ng/g] | also measured
Cc1cc(C(=O)NC(C)(c2ccco2)c2ccco2)nn1-c1cccc(C(F)(F)F)c1 [‘4936] | 5610 | 26.2 | but not CSF compartments | 0 | 0 | 0 | 0 | 0 | 0 | 0 | 0 | 0 | 0 | 2.39 | 12 | 25.2 | 26.1 | 17.9 | 6.06 | 7.4 | concentration at 480 min (brain): 1.98 ng/g; half-life (brain): 2.08 h; concentration at 1 min (plasma): 0 ng/mL; concentration at 5 min (plasma): 0.512 ng/mL; concentration at 15 min (plasma): 1.63 ng/mL; concentration at 30 min (plasma): 4.54 ng/mL; concentration at 60 min (plasma): 3.59 ng/mL; concentration at 120 min (plasma): 3.55 ng/mL; concentration at 240 min (plasma): 1.18 ng/mL; concentration at 360 min (plasma): 0.867 ng/mL; concentration at 480 min (plasma): 0 ng/mL; AUC(0-inf) (plasma): 14.4 ng·h/mL; Cmax (plasma): 4.5 ng/mL and 11 nM
COC(=O)[C@@](C)(NC(=O)c1cc(C)n(-c2cccc(C(F)(F)F)c2)n1)c1cccs1 [‘1350] | 8180 | 44.1 | but not CSF compartments; also recorded: below the quantification limit | 0 | 1.2 | 0 | 0 | 0 | 0 | 0 | 0 | 0.14 | 0 | 8.24 | 41.8 | 29.5 | 44.1 | 33.1 | 4.35 | 8.81 | concentration at 480 min (brain): 2.87 ng/g; half-life (brain): 1.87 h; concentration at 1 min (plasma): 0 ng/mL; concentration at 5 min (plasma): 6.41 ng/mL; concentration at 15 min (plasma): 10.8 ng/mL; concentration at 30 min (plasma): 5.48 ng/mL; concentration at 60 min (plasma): 7.25 ng/mL; concentration at 120 min (plasma): 6.15 ng/mL; concentration at 240 min (plasma): 0.376 ng/mL; concentration at 360 min (plasma): 1.1 ng/mL; concentration at 480 min (plasma): 0.486 ng/mL; AUC(0-inf) (plasma): 25.2 ng·h/mL; Cmax (plasma): 10.8 ng/mL and 25 nM; half-life (plasma): 1.85 h
